Reference: ChEMBL document CHEMBL5512633, “Hit-to-lead optimization of 2-aminoquinazolines as anti-microbial agents against Leishmania donovani” (Eur J Med Chem, 2024)
Activity calls are given as the source filed them. The rule behind the calls is not given here.

Tests used:
[1] = Metabolic stability in mouse liver microsomes assessed as half-life preincubated for 10 mins and measured after 60 mins by LC-MS/MS analysis; format: ADME, Microsome
[2] = Lipophilicity, logD of compound in 1-octanol and phosphate buffer at pH 7.4 by HPLC-UV analysis; format: physicochemical; settings: 1-octanol/phosphate buffer
[3] = Cytotoxicity against human THP-1 cells incubated for 72 hrs by DAPI staining based analysis; format: toxicity, cell-based
[4] = Metabolic stability in human liver microsomes assessed as half-life preincubated for 10 mins and measured after 60 mins by LC-MS/MS analysis; format: ADME, Microsome
[5] = Metabolic stability in human liver microsomes assessed as hepatic blood flow preincubated for 10 mins and measured after 60 mins by LC-MS/MS analysis; format: ADME, Microsome; settings: read-out: QH
[6] = Metabolic stability in mouse liver microsomes assessed as hepatic blood flow preincubated for 10 mins and measured after 60 mins by LC-MS/MS analysis; format: ADME, Microsome; settings: read-out: QH
Leishmania donovani [7] = assay: Antileishmanial activity against Leishmania donovani MHOM/IN/1983/AG83 axenic amastigotes assessed as inhibition of growth incubated for 48 hrs by flow cytometric analysis; format: functional, organism-based; settings: MHOM/IN/1983/AG83, 48 h
[8] = Stability in human plasma assessed as compound remaining measured after 2 hrs by LC-MS/MS analysis; format: ADME, cell-free; settings: read-out: Stability
[9] = Stability in mouse plasma assessed as compound remaining measured after 2 hrs by LC-MS/MS analysis; format: ADME, cell-free; settings: read-out: Stability
Leishmania donovani [10] = assay: Antileishmanial activity against Leishmania donovani MHOM/IN/1983/AG83 axenic amastigotes assessed as inhibition of growth at 30 uM incubated for 48 hrs by flow cytometric analysis relative to control; format: functional

SMILES | half-life [1] [min] | logD [2] | CC50 at 72 h [3] [µM] | half-life [4] [min] | hepatic extraction ratio at 1 h [5] | hepatic extraction ratio at 1 h [6] | IC50 (Leishmania donovani [7]) [µM] | remaining at 2 h [8] [%] | remaining at 2 h [9] [%] | inhibition at 30 µM (Leishmania donovani [10]) [%] | inhibition (Leishmania donovani [10])
COc1ccc(CNc2nc(N3CCCCC3)c3cc(OC)c(OCc4ccccc4)cc3n2)cc1 | 15.5 | 2.39 | 19.5 | 32.2 | 0.499 | 0.548 | 10.3 | 70.2 | 106 | – | –
COc1cc2c(N3CCCCC3)nc(NC3CCCCC3)nc2cc1OC1CCCC1 | – | – | 10.2 | – | – | – | 3.28 | – | – | – | –
COc1cc2c(N3CCCCC3)nc(N(C)Cc3ccc(Cl)cc3)nc2cc1OC1CCCC1 | – | – | > 50 | – | – | – | 10.2 | – | – | – | –
COc1cc2c(N3CCCCC3)nc(N)nc2cc1OC1CCCC1 | – | – | > 100 | – | – | – | 19.4 | – | – | – | –
COc1cc2c(N(C)C)nc(NCc3ccc(Br)cc3)nc2cc1OC1CCNC1 (centres undefined) | – | – | – | – | – | – | 3.26 | – | – | – | –
COc1cc2c(N3CCCCC3)nc(N)nc2cc1O | – | – | 22.2 | – | – | – | – | – | – | ~13.6 | –
COc1cc2c(N3CCCCC3)nc(NS(C)(=O)=O)nc2cc1OCc1ccccc1 | – | – | > 50 | – | – | – | – | – | – | ~5.5 | –
COc1cc2c(N3CCCCC3)nc(NCc3ccc([N+](=O)[O-])cc3)nc2cc1OC1CCCC1 | – | – | 5.68 | – | – | – | 9.63 | – | – | – | –
COc1cc2c(N3CCCCC3)nc(NCC3CCCCC3)nc2cc1OC1CCCC1 | 16.3 | 3.34 | 6.97 | 22.2 | 0.747 | 0.699 | 4.36 | 46 | 99.3 | – | –
COc1cc2c(N3CCCCC3)nc(NCc3ccc(C(C)(C)C)cc3)nc2cc1OC1CCCC1 | 22.8 | 3.66 | 2.63 | 117 | 0.216 | 0.454 | 4.93 | 63 | 44 | – | –
COc1cc2c(N3CCCCC3)nc(NCc3ccc(Cl)cc3)nc2cc1OC1CCCC1 | 17.5 | 3.14 | 12.2 | 19.1 | 0.627 | 0.519 | 8.13 | 103 | 92.2 | – | –
COc1cc2nc(NCc3ccc(F)cc3)nc(N3CCCCC3)c2cc1OC | – | – | 11.1 | – | – | – | 13.7 | – | – | – | –
COc1ccc(CNc2nc(N3CCCCC3)c3cc(OC)c(O)cc3n2)cc1 | – | – | > 50 | – | – | – | 12.3 | – | – | – | –
COc1cc2c(N3CCOCC3)nc(NCc3ccc(F)cc3)nc2cc1OC1CCCC1 | 6.9 | 3.22 | > 50 | 6 | 0.843 | 0.732 | 12 | 59.3 | 95.6 | – | –
COc1cc2c(N3CCCCC3)nc(NCc3ccc(C)cc3)nc2cc1OC1CCCC1 | – | – | 3.49 | – | – | – | 5.32 | – | – | – | –
COc1cc2c(N3CCCCC3)nc(NS(C)(=O)=O)nc2cc1OC1CCCC1 | – | – | 57.9 | – | – | – | – | – | – | ~5.1 | –
CC(C)[N+](C)(CCOC(=O)C1c2ccccc2Oc2ccccc21)C(C)C [PROPANTHELINE] | – | – | – | – | – | – | – | 1.2 | 37.2 | – | –
Clc1ccc(CNc2nc(N3CCCCC3)c3cc4c(cc3n2)OCO4)cc1 | 10.8 | 2.42 | 13.8 | 16 | 0.668 | 0.637 | 13.5 | 77.5 | 97.4 | – | –
COc1ccc(CNc2nc(N3CCCCC3)c3cc(OC)c(OC4CCCC4)cc3n2)cc1 | – | – | 4.56 | – | – | – | 16.6 | – | – | – | –
COc1cc2c(N3CCCCC3)nc(N)nc2cc1OCc1ccccc1 | – | – | 15.4 | – | – | – | 12 | – | – | – | –

SMILES | half-life [1] [min] | logD [2] | CC50 at 72 h [3] [µM] | half-life [4] [min] | hepatic extraction ratio at 1 h [5] | hepatic extraction ratio at 1 h [6] | IC50 (Leishmania donovani [7]) [µM] | remaining at 2 h [8] [%] | remaining at 2 h [9] [%] | inhibition at 30 µM (Leishmania donovani [10]) [%] | inhibition (Leishmania donovani [10])
COc1cc2c(N3CCCCC3)nc(NCc3ccccc3)nc2cc1OC1CCCC1 | 19.2 | 2.59 | 4.13 | 20.8 | 0.607 | 0.496 | 7.49 | 93.7 | 88.7 | – | –
COc1cc2c(N3CCCCC3)nc(N(C)C)nc2cc1O | – | – | 73.4 | – | – | – | – | – | – | ~18.8 | –
COc1cc2c(N(C)C)nc(NCc3ccc(Br)cc3)nc2cc1O | – | – | – | – | – | – | 4.78 | – | – | – | –
COc1cc2c(N3CCCCC3)nc(NCc3ccc(F)cc3)nc2cc1O | – | – | 28.2 | – | – | – | 12.2 | – | – | – | –
COc1cc2c(N3CCCCC3)nc(NCc3ccccc3)nc2cc1OCc1ccccc1 | – | – | > 100 | – | – | – | 9.54 | – | – | – | –
COc1cc2c(N3CCCCC3)nc(Cl)nc2cc1OCc1ccccc1 | – | – | > 100 | – | – | – | – | – | – | – | inactive
COc1cc2c(N3CCCCC3)nc(NCc3ccc(C(F)(F)F)cc3)nc2cc1O | – | – | 27.1 | – | – | – | 8.91 | – | – | – | –
COc1cc2c(N3CCCCC3)nc(NC(=O)c3ccc(Cl)cc3)nc2cc1OC1CCCC1 | – | – | 7.58 | – | – | – | 16.6 | – | – | – | –
COc1cc2c(N3CCCCC3)nc(NS(C)(=O)=O)nc2cc1O | – | – | > 100 | – | – | – | – | – | – | ~3.25 | –
COc1cc2c(N3CCCCC3)nc(NCc3ccc(C(F)(F)F)cc3)nc2cc1OC1CCCC1 | 20.3 | 2.94 | 28.1 | 38.9 | 0.455 | 0.484 | 17.9 | 97.5 | 88.1 | – | –
CCCCc1ccc(CNc2nc(N3CCCCC3)c3cc(OC)c(OC4CCCC4)cc3n2)cc1 | – | – | 5.69 | – | – | – | – | – | – | ~17 | –
COc1cc2c(N3CCCCC3)nc(NC(=O)c3ccc(C(F)(F)F)cc3)nc2cc1OC1CCCC1 | – | – | 79 | – | – | – | – | – | – | ~34.5 | –
O=c1c(O)c(-c2ccc(O)c(O)c2)oc2cc(O)cc(O)c12 [QUERCETIN] | – | 2.5 | – | – | – | – | – | – | – | – | –
CNc1nc(NCc2ccc(F)cc2)nc2cc(OC3CCCC3)c(OC)cc12 | 9.1 | 2.22 | 2.29 | 11.4 | 0.738 | 0.674 | 1.55 | 73.2 | 88.9 | – | –
COc1cc2c(N3CCCCC3)nc(N(C)Cc3ccc(Br)cc3)nc2cc1OC1CCCC1 | – | – | 34.4 | – | – | – | 54 | – | – | – | –
COc1cc2c(N(C)C)nc(NCc3ccc(F)cc3)nc2cc1OC1CCCC1 | 6.9 | 2.46 | 3.79 | 8.1 | 0.799 | 0.733 | 5.67 | 81.2 | 91.6 | – | –
COc1cc2c(N3CCCCC3)nc(Nc3ccc(Cl)cc3)nc2cc1OC1CCCC1 | – | – | 37.5 | – | – | – | 22.7 | – | – | – | –
COc1cc2c(N3CCCCC3)nc(NCc3ccc(F)cc3)nc2cc1OC1CCCC1 | 13 | 2.64 | 46.5 | 12.4 | 0.722 | 0.592 | 10.2 | 105 | 96.9 | – | –
COc1cc2c(N3CCCCC3)nc(NCc3ccccc3)nc2cc1O | – | – | 30.2 | – | – | – | 11.3 | – | – | – | –
COc1cc2c(N3CCCCC3)nc(NCc3ccc(F)cc3)nc2cc1OCc1ccccc1 | – | – | 26.9 | – | – | – | 10.5 | – | – | – | –
